The text below walks through data of article PMC9502271, “An Investigation of the Anti-Depressive Properties of Phenylpropanoids and Flavonoids in Hemerocallis citrina Baroni” (Molecules, 2022).

Where two headings read alike, the source gives them in different places.

The term IC50 denotes the midpoint of a concentration-inhibition curve.

The test system of assay [1] is CUMS rats. Briefly: Sucrose preference test (SPT) in CUMS rats. In kind it is in vivo, Male Sprague-Dawley (SD) rats. As to conditions: after five weeks of administration by gastric gavage, HFPE, HFFE 25 mg/kg, fluoxetine 10 mg/kg, model group 64.44%. Here is the method: (§1) The Animal Ethics Committee of Shenyang Pharmaceutical University has approved all animal testing (no. SYPU-IACUC-S2021-03-03-202). Male Sprague-Dawley (SD) rats weighing 180–200 g were supplied by Central Animal House of Shenyang Pharmaceutical University (Shenyang, China). […] They were also provided water and a regular food. Before the actual trials start, the rats should acclimate to their new environment for seven days.
(§2) A baseline test was conducted as described below before grouping. Rats were divided into five groups of 10 depending on their weight and sucrose preference. The model group, fluoxetine (10 mg/kg) group, HFPE (25 mg/kg) group, and HFFE (25 mg/kg) group were the four treatment groups using CUMS procedures. An untouchable control group was used. Based on what had been reported in the pharmacological literature the HFPE and HFFE dosages were selected. Two hours before to the daily CUMS procedure and behavioral testing, the rats received the appropriate solutions. […]
(§3) Body weights were recorded every week. […]
The SPT is used to evaluate rodent behavior associated with a human clinical symptom of depression by evaluating the capacity to seek pleasure. […] After that, the amount of liquids consumed was recorded. […]

Assay [2] concerns CUMS rats. Description: Open-field test (OFT) in CUMS rats. The format is in vivo, Male Sprague-Dawley (SD) rats. As to conditions: 5 min test, HFPE, HFFE 25 mg/kg, fluoxetine 10 mg/kg, compared with model group. Here is the method:
as §1, §2, §3
To assess the effects of HFPE and HFFE on exploratory behavior of rats administered CUMS, OFT carried out in the same manner as literature. Each rat was placed in its own square in the center of a black box that measured 100 cm × 100 cm × 40 cm. […] Both the crossing score and the rearing score for each animal were recorded. […]

The subject of assay [3] is CUMS rats. Briefly: Forced swimming test (FST) in CUMS rats. In kind it is in vivo, Male Sprague-Dawley (SD) rats. The conditions noted are these: HFPE, HFFE 25 mg/kg, fluoxetine 10 mg/kg, compared with CUMS model group. Here is the method:
as §1
as §2, with “solutions. All of the medications were administered through gastric gavage at a volume of 3 mL/kg of body weight and dissolved in sodium carboxymethylcellulose (CMC-Na) at a concentration of 0.3%.” for “solutions.”
as §3
The FST protocol was carried out as described in previous literature. […] The time the rat’s immobility duration in the last five minutes of their six-minute swim in the bucket was recorded. […]

A short description of assay [4]: Body weight growth rate of CUMS rats. In kind it is in vivo, Male Sprague-Dawley (SD) rats. The conditions noted are these: 5 weeks, HFPE, HFFE 25 mg/kg, fluoxetine 10 mg/kg, gastric gavage. Here is the method: as §1
as §2, with “solutions. All of the medications were administered through gastric gavage at a volume of 3 mL/kg of body weight and dissolved in sodium carboxymethylcellulose (CMC-Na) at a concentration of 0.3%. Days 76–79, 80, and 81 after the final dosage of the medication, respectively, saw the completion of the SPT, OFT, and FST.” for “solutions.”
as §3

In another assay the test system is IL-6. Description: IL-6 level in hippocampus of CUMS rats, ELISA. In kind it is in vivo, Male Sprague-Dawley (SD) rats. The conditions noted are these: after 5 weeks of therapy, HFPE, HFFE 25 mg/kg, fluoxetine 10 mg/kg. On the procedure: as §1, §2
(§4) The serum and hippocampal tissue of rats were taken. […] The optical density value was calculated after the reaction by setting the microtiter plate at 450 nm. The amount of CORT in the serum and the amounts of IL-6, IL-1β, and TNF-α in the hippocampus tissue were calculated using the standard curve.
A general note: In an ELISA, binding on a coated surface is turned into a signal by an enzyme label.

For another assay, the system named is IL-1β. Briefly: IL-1β level in hippocampus of CUMS rats, ELISA. In kind it is in vivo, Male Sprague-Dawley (SD) rats. The conditions noted are these: after 5 weeks of therapy, HFPE, HFFE 25 mg/kg, fluoxetine 10 mg/kg. On the procedure: as §1, §2, §4
For the next assay, the system named is TNF-α. Description: TNF-α level in hippocampus of CUMS rats, ELISA. The conditions noted are these: after 5 weeks of therapy, HFPE, HFFE 25 mg/kg, fluoxetine 10 mg/kg. In kind it is in vivo, Male Sprague-Dawley (SD) rats. Here is the method: as §1, §2, §4
Assay [5] concerns NO production induced by LPS in BV2 cells. Briefly: Inhibition of NO production in LPS-induced BV2 microglial cells (Griess reagent). The format is cell-based. As to conditions: for IC50: Mus musculus, BV-2, LPS-induced BV2 cells, compound test concentrations 3.125 to 100 μM, mean ± SD (n = 3), read-out: IC50 NO Inhibitory. Here is the method: (§5) BV2 microglia cells were purchased from iCell Bioscience Inc. (Shanghai, China). The cells were grown at 37 °C in a humid environment with 5% CO2. In DMEM with 10% fetal bovine serum and 1% penicillin-streptomycin solution, they were maintained alive. The following assays were carried out while the cells were in the exponential growth phase (subcultured 2–3 times).
To determine how much NO is produced, the literature was consulted. Equal parts of the Griess reagent (1% sulfanilamide and 0.1% N-(1-naphthyl) ethylenediamine dihydrochloride in 2.5% phosphoric acid) were combined with the sample-treated cell culture medium for 5 min at room temperature and in the dark. It was determined that the absorbance was at 540 nm using a microplate reader. The trials were conducted simultaneously in triplicate.

Another assay deals with BV2 microglial cells. Briefly: CCK8 cytotoxic activity in BV2 microglial cells. In kind it is cell-based. As to conditions: compound test concentrations 3.125 to 100 μM, read-out: IC50 Cell Viability. Here is the method:
as §5
The cytotoxic activity was assessed using the CCK8 test. In a 96-well plate, BV2 microglial cells (5 × 10^4 cells/well) were placed in each well and incubated for 12 h. After one hour with each substance, LPS (1 μg/mL) was applied to the BV2 microglia cells for an additional 24 h. The CCK8 solution was then incubated with BV2 cells for 1 h at 37 °C. The absorbance at 450 nm was measured using a plate reader (Molecular Devices, San Jose, CA, USA). The cells that had not been treated were assumed to have a 100% optical density.

Setting [6] is: Mus musculus, BV-2, CCK8, LPS 1 μg/mL 24 h.

`CNCCC(Oc1ccc(C(F)(F)F)cc1)c1ccccc1` (stereo not shown) [fluoxetine] had a sucrose preference in the assay with CUMS rats [1] of 82.40%. Also, the “OFT rearing score (exploratory activity)” value in the assay on CUMS rats [2] is “improved the rearing score”. The FST immobility time result in the assay on CUMS rats [3] is reported as “reduced immobility”. The “growth rate of body weight” value in assay [4] was “alleviate the reduction in body weight”. For the same compound, the “IL-6 level in hippocampus” value with IL-6 is on record as “obviously reduced”. Besides, the “IL-1β level in hippocampus” value in the assay on IL-1β is on record as “obviously reduced”. The “TNF-α level in hippocampus” value in the assay with TNF-α is recorded as “obviously reduced”.
As for `COc1cc(/C=C/C(=O)O[C@@H]2C[C@@](O)(C(=O)O)C[C@@H](O)[C@@H]2O)ccc1O` [Compound 15, 3-O-(E)-feruloylquinic acid], the IC50 (in [5]; in the assay on BV2 microglial cells (setting [6])) was greater than 100 µM throughout.
As to `O=c1c(O[C@@H]2O[C@H](CO)[C@H](O)[C@H](O)[C@H]2O)c(-c2ccc(O)cc2)oc2cc(O)cc(O)c12` [Compound 32, kaempferol-3-O-β-D-galactopyranoside], the IC50 (in assay [5]; in the assay on BV2 microglial cells (setting [6])) was greater than 100 µM each time.
With `O=C(C=Cc1ccc(O)cc1)OC1CC2(O)CC(OC2=O)C1O` (stereo not shown) [Compound 8, 3-O-(Z)-p-coumaroylquinide], the “inhibitory effects on NO production in comparison with the positive drug indomethacin” value in [5] (LPS-induced BV2 cells) was “stronger inhibitory effects”. For the same compound, the IC50 in the assay on BV2 microglial cells (CCK8, LPS 1 μg/mL 24 h) was greater than 100 µM.
For the compound `O=C(O)/C=C\c1ccc(O)cc1` [Compound 2, (Z)-p-coumaric acid], the IC50 (in [5]; with BV2 microglial cells (setting [6])) was greater than 100 µM in each case.
For `C[C@@H]1O[C@@H](OC[C@H]2O[C@@H](Oc3c(-c4ccc(O)cc4)oc4cc(O)cc(O)c4c3=O)[C@H](O)[C@@H](O)[C@H]2O)[C@H](O)[C@H](O)[C@H]1O` [Compound 34, kaempferol-3-O-α-L-rhamnopyranosyl-(1→6)-β-D-galactpyranoside], the IC50 (in assay [5]; in the assay on BV2 microglial cells (setting [6])) was greater than 100 µM each time.
As to `COc1cc(-c2oc3cc(O)cc(O)c3c(=O)c2O[C@@H]2O[C@H](CO[C@@H]3O[C@@H](C)[C@H](O)[C@@H](O)[C@H]3O)[C@@H](O)[C@H](O)[C@H]2O[C@@H]2O[C@@H](C)[C@H](O)[C@@H](O)[C@H]2O)ccc1O` [Compound 29, isorhamnetin-3-O-α-L-rhamnopyranosyl-(1→2)-[α-L-rhamnopyranosyl-(1→6)-β-D-glucopyranoside]], the IC50 (in [5]; with BV2 microglial cells (setting [6])) was greater than 100 µM each time.
